Patent US8993612B2, “Modulators of calcium release-activated calcium channel and methods for treatment of non-small cell lung cancer” (Rhizen Pharmaceuticals SA, priority 2009, dated 2015)
Counter-ions that a name gives are not always drawn.

Columns and labels:
CRAC channels [1] = target: T1, CRAC channels (Homo sapiens (Human), UniProt Q96D31); assay: In-vitro CRAC channel inhibition assay in Jurkat cells (thapsigargin-induced calcium influx); format: cell-based
Description: Inhibition of CRAC channels was determined following thapsigargin (Sigma, Cat # T9033) induced endoplasmic calcium release in Jurkat cells. (see Yasurio Yonetoky et. al Bio. & Med. Chem. 14 (2006) 4750-4760). Cells were centrifuged and resuspended in equal volumes ° f Ca^2+ and Mg^2+ free Hanks buffer and Fluo-8 NW dye (ABD Bioquest, Inc., Sunnyvale, Calif.) loading solution at 2×10^5 cells/100 μl/well in 96-well black plate. Plate is incubated at 37° C./5% CO2 for 30 mM followed by further 15 mM incubation at room temperature. Test compounds (DMSO stocks diluted in Ca^2+ and Mg^2+ free Hanks buffer) at desired concentrations were added to the wells and incubated for […]. Thapsigargin (1 μM final concentration) was added to the wells and incubated for 15 min to inhibit the Sarco-endoplasmic reticulum Ca^2+ ATPase pump thereby depleting endoplasmic calcium and raising cytosolic calcium concentrations. Store-operated calcium entry was initiated by adding extracellular Ca^2+ to a final concentration of 1.8 mM. Fluorescence was monitored over […] on a plate reader (BMG Labtech., Germany) with excitation at 485 nm and an emission wavelength at 520 nm. Data were analyzed using GraphPad Prism. IC50 for each compound was determined based on the percent inhibition of thapsigargin-induced calcium influx into cells.

CRAC channels [2] = target: T1, CRAC channels; assay: In-vitro CRAC channel inhibition assay in NCI-H460 cancer cell line (thapsigargin-induced calcium influx); format: cell-based; details: NCI-H460 cells; for inhibition at 1 µM: read-out: NCI-H460 Cell Ca assay % inhibition @ 1 μM; for IC50: read-out: NCI-H460 Cell Ca assay IC 50 nM
Description: Inhibition of CRAC channels was determined following thapsigargin (Sigma, Cat # T9033) induced endoplasmic calcium release in NCI-H460 cells (National Centre For Cell Science (NCCS), Pune).
Cells (30,000 per well) were plated overnight in complete RPMI medium. Medium was substituted with Ca^2+ and Mg^2+ free Hanks buffer and Fluo-8 NW dye (ABD Bioquest, Inc., Sunnyvale, Calif.) loading solution in 96-well black plate. Plate was incubated at 37° C./5% CO2 for 30 min followed by further 15 mM incubation at room temperature. Test compounds (DMSO stocks diluted in Ca^2+ and Mg^2+ free Hanks buffer) at desired concentrations were added to the wells and incubated for 15 min. Thapsigargin (1 μM final concentration) was added to the wells and incubated for 15 min to inhibit the Sarco-endoplasmic reticulum Ca^2+ ATPase pump thereby depleting endoplasmic calcium and raising cytosolic calcium concentrations. Store-operated calcium entry was initiated by adding extracellular Ca^2+ to a final concentration of 2.5 mM. Fluorescence was monitored over 30 mM on a plate reader (BMG Labtech., Germany) with excitation at 485 nm and an emission wavelength at 520 nm. Data were analyzed using GraphPad Prism. IC50 for each compound was determined based on the percent inhibition of Thapsigargin-induced calcium influx into cells.
For Methodology Refer 1B.

NCI-H460 cells = assay: In-vitro cell proliferation assay in NCI-H460 cancer cell line (MTT); format: cell-based, human; details: Homo sapiens; for inhibition at 10 µM: NCI-H460, 10 μM, 48 h; for IC50: NCI-H460, 48 h, read-out: NCI-H460 Cell line assay G1 50 nM
Description: Growth inhibition assays were carried out using 10% FBS supplemented media. Cells were seeded at a concentration of 5000 cells/well in a 96-well plate. Test compound at a concentration range from 0.01 to 10000 nM were added after 24 h. Growth was assessed using the 3-[4,5-dimethylthiazol-2-yl]-2,5-diphenyltetrazolium bromide (MTT) dye reduction test at 0 h (prior to the addition of the test compound) and 48 h after the addition of test compound. Absorbance was read on a Fluostar Optima (BMG Labtech, Germany) at a wave length of 450 nm. Data were analysed using GraphPad Prism. IC-50 for each compound was determined based on the % inhibition due to the test compound compared to the control.
For methods of cell proliferation assay, see, for example, Mosmann. T., Journal of Immunological Methods, 65(1-2), 55-63, (1983).
The effect of CRAC and/or STIM protein on the proliferation and viability of lung cancer cells was determined as follows.
For Methodology Refer 1C.

IL-2 = assay: Inhibition of IL-2 release in human whole blood; format: cell-based; details: Concanavalin A + PMA, 20 h, read-out: IC 50 Human Whole Blood IL-2
Description: (§1) Inhibition of cytokine IL-2, IL-4, IL-5 and TNF α was determined as described below.
(§2) Freshly collected HWB was diluted with RPMI medium (1:4.5) and added to a 96-well plate. Wells were incubated with desired concentrations of the inhibitor for 15 min. Cytokine release was induced by the addition of Concanavalin A (25 μg/ml)+Phorbol Myristate Acetate (50 ng/ml) for IL-2 & TNFα or with Phytohemagglutinin (5 μg/ml) for IL-4 & IL-5 and incubated at 37° C. in an atmosphere containing […]. Supernatant was collected after 20 h (IL-2 & TNFα) or 48 h (IL-4 & IL-5) for estimation of cytokines by ELISA. Data were analysed using GraphPad Prism. IC50 values for each compound were determined based on the percent inhibition due to the test compound compared to the control.

TNFα = assay: Inhibition of TNFα release in human whole blood; format: cell-based; details: Concanavalin A + PMA, 20 h, read-out: IC 50 Human Whole Blood TNFα
Description: as §1, §2

T1 sequence (Q96D31 whole entry): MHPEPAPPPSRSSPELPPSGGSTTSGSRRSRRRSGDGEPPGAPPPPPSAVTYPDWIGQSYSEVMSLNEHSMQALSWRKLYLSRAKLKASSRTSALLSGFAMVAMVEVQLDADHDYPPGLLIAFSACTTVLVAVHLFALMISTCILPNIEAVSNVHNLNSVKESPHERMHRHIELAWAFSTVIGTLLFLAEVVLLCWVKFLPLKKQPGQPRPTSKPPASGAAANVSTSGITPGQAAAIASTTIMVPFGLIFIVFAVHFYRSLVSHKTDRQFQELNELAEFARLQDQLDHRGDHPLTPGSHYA

Compound	inhibition at 1 µM (CRAC channels [1]; 1 uM)	inhibition at 10 µM (NCI-H460 cells)	IC50 (NCI-H460 cells)	also measured
O=C(Nc1ccc(-n2nc(C3CC3)cc2C2CC2)cc1)c1ccc2nn[nH]c2c1 [Example 2, N-[4-(3,5-dicyclopropyl-1H-pyrazol-1-yl)phenyl]-1H-benzo[d][1,2,3]triazole-6-carboxamide]	78%	34%		IC50 (CRAC channels [1]): 182 nM; inhibition at 1 µM (CRAC channels [2]): 91.1%; IC50 (IL-2): 102 nM; IC50 (TNFα): 148 nM
O=C(Nc1ccc(-n2nc(C3CC3)cc2C2CC2)cc1)c1ccc2ncccc2c1 [Example 3, N-[4-(3,5-dicyclopropyl-1H-pyrazol-1-yl)phenyl]quinoline-6-carboxamide hydrochloride]	100%		261 nM	inhibition at 1 µM (CRAC channels [2]): 100%
O=C(Nc1ccc(-n2nc(C3CC3)cc2C2CC2)cc1)c1ccc2nccnc2c1 [Example 4, N-[4-(3,5-dicyclopropyl-1H-pyrazol-1-yl)phenyl]quinoxaline-6-carboxamide]	85%	41%		inhibition at 1 µM (CRAC channels [2]): 80.7%
O=C(Cn1cnc2ccccc21)Nc1ccc(-n2nc(C3CC3)cc2C2CC2)cc1 [Example 5, 2-(1H-benzo[d]imidazol-1-yl)-N-[4-(3,5-dicyclopropyl-1H-pyrazol-1-yl)phenyl]acetamide]	88.5%		177 nM	IC50 (CRAC channels [1]): 383 nM; IC50 (CRAC channels [2]): 79.9 nM
O=C(Cn1nnc2ccccc21)Nc1ccc(-n2nc(C3CC3)cc2C2CC2)cc1 [Example 6, 2-(1H-benzo[d][1,2,3]triazol-1-yl)-N-[4-(3,5-dicyclopropyl-1H-pyrazol-1-yl)phenyl]acetamide]	94.6%			IC50 (CRAC channels [1]): 51.3 nM; IC50 (IL-2): 52.2 nM; IC50 (TNFα): 165 nM
Cl.O=C(Cc1ccc2ncccc2c1)Nc1ccc(-n2nc(C3CC3)cc2C2CC2)cc1 [Example 10, N-[4-(3,5-dicyclopropyl-1H-pyrazol-1-yl)phenyl]-2-(quinolin-6-yl)acetamide hydrochloride]				% inhibition (1 uM) (CRAC channels [1]; 1 uM): 100%; IC50 (CRAC channels [2]): 72.7 nM
O=C(Cc1ccc2ncccc2c1)Nc1ccc(-n2nc(C3CC3)cc2C2CC2)c(F)c1 [Example 12, N-[4-(3,5-dicyclopropyl-1H-pyrazol-1-yl)-3-fluorophenyl]-2-(quinolin-6-yl)acetamide Hydrochloride]	100%	90%	100 nM	IC50 (CRAC channels [1]): 263 nM
O=C(Nc1ccc(-n2nc(C(F)(F)F)cc2C2CC2)cc1)c1ccc2ncccc2c1 [Example 17, N-{4-[5-cyclopropyl-3-(trifluoromethyl)-1H-pyrazol-1-yl]phenyl}quinoline-6-carboxamide hydrochloride]	94%		710 nM	inhibition at 1 µM (CRAC channels [2]): 100%
Nc1ncnc2c1ncn2CC(=O)Nc1ccc(-n2nc(C(F)(F)F)cc2C2CC2)cc1 [Example 24, 2-(6-amino-9H-purin-9-yl)-N-{4-[5-cyclopropyl-3-(trifluoromethyl)-1H-pyrazol-1-yl]phenyl}acetamide]	14.8%	84.4%		
O=C(Cc1ccc2ncccc2c1)Nc1ccc(-n2nc(C(F)(F)F)cc2C2CC2)cc1 [Example 27, N-{4-[5-cyclopropyl-3-(trifluoromethyl)-1H-pyrazol-1-yl]phenyl}-2-(quinolin-6-yl)acetamide Hydrochloride]	100%		358 nM	inhibition at 1 µM (CRAC channels [2]): 98.1%; IC50 (IL-2): 125 nM; IC50 (TNFα): 118 nM
CC(C(=O)Nc1ccc(-n2nc(C(F)(F)F)cc2C2CC2)cc1)c1ccc2ncccc2c1 (stereo not drawn) [Example 28, N-{4-[5-cyclopropyl-3-(trifluoromethyl)-1H-pyrazol-1-yl]phenyl}-2-(quinolin-6-yl)propanamide Hydrochloride]	0%			
O=C(Nc1ccc(-n2nc(C(F)(F)F)cc2C2CC2)c(F)c1)c1ccc2nn[nH]c2c1 [Example 29, N-{4-[5-cyclopropyl-3-(trifluoromethyl)-1H-pyrazol-1-yl]-3-fluorophenyl}-1H-benzo[d][1,2,3]triazole-6-carboxamide]	81.1%	100%	1520 nM	
O=C(Cn1nnc2ccccc21)Nc1ccc(-n2nc(C(F)(F)F)cc2C2CC2)c(F)c1 [Example 30, 2-(1H-benzo[d][1,2,3]triazol-1-yl)-N-{4-[5-cyclopropyl-3-(trifluoromethyl)-1H-pyrazol-1-yl]-3-fluorophenyl}acetamide]	100%			IC50 (CRAC channels [1]): 160 nM
O=C(Nc1ccc(-n2nc(C(F)(F)F)cc2C2CC2)nc1)c1ccc2[nH]nnc2c1 [Example 31, N-{6-[5-cyclopropyl-3-(trifluoromethyl)-1H-pyrazol-1-yl]pyridin-3-yl}-1H-benzo[d][1,2,3]triazole-5-carboxamide]	50.6%			
O=C(Cn1nnc2ccccc21)Nc1ccc(-n2nc(C(F)(F)F)cc2C2CC2)nc1 [Example 32, 2-(1H-benzo[d][1,2,3]triazol-1-yl)-N-{6-[5-cyclopropyl-3-(trifluoromethyl)-1H-pyrazol-1-yl]pyridin-3-yl}acetamide]	41.2%			
O=C(Cn1nc2ccccc2n1)Nc1ccc(-n2nc(C(F)(F)F)cc2C2CC2)nc1 [Example 33, 2-(2H-benzo[d][1,2,3]triazol-2-yl)-N-{6-[5-cyclopropyl-3-(trifluoromethyl)-1H-pyrazol-1-yl]pyridin-3-yl}acetamide]	49.5%			
O=C(Cc1ccc2ncccc2c1)Nc1ccc(-n2nc(C(F)(F)F)cc2C2CC2)nc1 [Example 34, N-{6-[5-cyclopropyl-3-(trifluoromethyl)-1H-pyrazol-1-yl]pyridin-3-yl}-2-(quinolin-6-yl)acetamide hydrochloride]	51.2%	82.7%	628 nM	
O=C(Cn1nnc2ccccc21)Nc1ccc(-n2nc(C(F)(F)F)c(Cl)c2C2CC2)nc1 [Example 35, 2-(1H-benzo[d][1,2,3]triazol-1-yl)-N-{6-[4-chloro-5-cyclopropyl-3-(trifluoromethyl)-1H-pyrazol-1-yl]pyridin-3-yl}acetamide]	15%			
O=C(NCc1ccc2ncccc2c1)c1ccc(-n2nc(C(F)(F)F)cc2C2CC2)c(F)c1 [Example 36, 4-[5-cyclopropyl-3-(trifluoromethyl)-1H-pyrazol-1-yl]-3-fluoro-N-(quinolin-6-ylmethyl)benzamide hydrochloride]	51%			
O=C(Nc1ccc(-n2nc(C3CC3)cc2C2CC2)cc1)Nc1ccc2ncccc2c1 [Example 37, 1-[4-(3,5-dicyclopropyl-1H-pyrazol-1-yl)phenyl]-3-(quinolin-6-yl)urea]	57.3%			
